The source made the active and inactive calls. The rule behind the calls is not given here.
Assays:
[1] = target: Beta-secretase 1 (Homo sapiens, UniProt P56817); assay: Inhibition of human BACE-1 measured after 2 hrs by FRET assay
[2] = target: T1, Acetylcholinesterase (Homo sapiens, UniProt P22303); assay: Non-competitive inhibition of human AChE using varying concentrations of acetylthiocholine iodide as substrate assessed as reduction in Vmax with constant Km at 0.03 to 0.3 uM by Lineweaver-Burk double reciprocal plot analysis; conditions: dose 0.03-0.3 µM
T1 sequence (P22303 whole entry): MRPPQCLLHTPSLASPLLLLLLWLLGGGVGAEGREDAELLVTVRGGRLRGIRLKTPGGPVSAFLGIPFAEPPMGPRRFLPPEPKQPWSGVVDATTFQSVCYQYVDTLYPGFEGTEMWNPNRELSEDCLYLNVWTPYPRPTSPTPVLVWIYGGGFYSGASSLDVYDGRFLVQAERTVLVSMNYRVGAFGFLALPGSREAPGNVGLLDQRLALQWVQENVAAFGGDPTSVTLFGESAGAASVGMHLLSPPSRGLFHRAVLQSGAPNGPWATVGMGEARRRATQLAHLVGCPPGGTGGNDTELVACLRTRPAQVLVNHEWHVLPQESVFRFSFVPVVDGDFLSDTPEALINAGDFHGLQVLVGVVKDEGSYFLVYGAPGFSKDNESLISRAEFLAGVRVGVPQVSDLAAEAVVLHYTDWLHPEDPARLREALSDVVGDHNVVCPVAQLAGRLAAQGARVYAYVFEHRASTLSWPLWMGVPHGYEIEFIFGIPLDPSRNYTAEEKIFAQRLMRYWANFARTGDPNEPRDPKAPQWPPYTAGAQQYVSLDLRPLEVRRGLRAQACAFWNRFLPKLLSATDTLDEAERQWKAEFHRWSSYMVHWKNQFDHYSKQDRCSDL

[3] = target: T1, Acetylcholinesterase; assay: Non-competitive inhibition of human AChE using acetylthiocholine iodide as substrate assessed as inhibition constant at 0.03 to 0.3 uM by Dixon plot analysis
[4] = target: Amyloid-beta precursor protein (Homo sapiens) (UniProt P05067); assay: Inhibition of self induced amyloid beta (1 to 42 residues) (unknown origin) aggregation at 5 to 20 uM measured after 48 hrs by thioflavin T based fluorescence analysis relative to control; conditions: dose 5-20 µM
Chain of Amyloid-beta precursor protein (Homo sapiens) (P05067 whole entry, the tested form may be a part): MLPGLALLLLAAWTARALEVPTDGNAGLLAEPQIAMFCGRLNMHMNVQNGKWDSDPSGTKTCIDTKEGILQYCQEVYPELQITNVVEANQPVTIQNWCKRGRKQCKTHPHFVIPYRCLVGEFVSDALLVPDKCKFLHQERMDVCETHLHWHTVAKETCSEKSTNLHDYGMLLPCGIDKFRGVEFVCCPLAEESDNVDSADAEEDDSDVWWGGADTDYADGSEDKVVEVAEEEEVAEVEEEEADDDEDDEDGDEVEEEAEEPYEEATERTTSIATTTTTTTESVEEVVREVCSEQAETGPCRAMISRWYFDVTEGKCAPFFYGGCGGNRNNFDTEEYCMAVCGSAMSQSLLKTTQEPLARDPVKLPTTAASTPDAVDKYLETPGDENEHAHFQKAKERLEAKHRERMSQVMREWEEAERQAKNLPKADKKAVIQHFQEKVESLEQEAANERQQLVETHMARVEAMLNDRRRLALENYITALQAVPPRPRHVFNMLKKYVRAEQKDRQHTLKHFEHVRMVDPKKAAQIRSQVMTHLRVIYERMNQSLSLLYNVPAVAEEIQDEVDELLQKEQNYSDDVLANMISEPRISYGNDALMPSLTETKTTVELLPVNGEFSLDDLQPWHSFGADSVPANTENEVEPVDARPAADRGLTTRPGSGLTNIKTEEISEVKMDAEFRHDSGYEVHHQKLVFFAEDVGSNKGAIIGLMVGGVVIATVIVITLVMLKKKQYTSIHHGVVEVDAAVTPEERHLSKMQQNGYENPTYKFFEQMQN

[5] = Acute toxicity in female Wistar rat assessed as adverse side effects at 100 to 500 mg/kg, po measured after 14 days; type: organism-based; conditions: in vivo, 336 h, dose 100-500 mg/kg, time 14 day
[6] = Acute toxicity in female Wistar rat assessed as histopathological changes in heart at 100 to 500 mg/kg, po measured after 14 days; type: organism-based; conditions: in vivo, 336 h, dose 100-500 mg/kg, time 14 day
[7] = system: Rattus norvegicus; assay: Reversal of amyloid beta (1 to 42 residues) induced cognitive impairment in female Wistar rat assessed as reduction in escape latency time at 20 mg/kg, po pretreated with amyloid beta for 7 days followed by compound administration and measured after 5 days by Morris water maze test; type: functional, organism-based; conditions: time 5.0 day
[8] = Toxicity in Drosophila melanogaster Oregon R-positive assessed as reduction in cell viability upto 50 uM measured until 15 days; conditions: 360 h, time 15 day
[9] = Toxicity in Drosophila melanogaster Oregon R-positive assessed as reduction in eclosed flies at pupal stage at 100 uM measured until 15 days relative to control; design: scale not given: the % may be the effect or the level left; conditions: 360 h, time 15 day
[10] = system: Drosophila melanogaster; assay: Reversal of ey-GAL4 driven UAS-amyloid beta induced cellular toxicity in Drosophila melanogaster Oregon R-positive model assessed as increase in cell viability in gut at 5 uM by MTT assay relative to control; type: functional
[11] = system: Drosophila melanogaster; assay: Reversal of ey-GAL4 driven UAS-amyloid beta induced cellular toxicity in Drosophila melanogaster Oregon R-positive model assessed as increase in rescued eye phenotype at 5 uM by trinocular stereo-zoom microscope relative to control; type: functional
[12] = system: Drosophila melanogaster; assay: Reversal of ey-GAL4 driven UAS-amyloid beta induced cellular toxicity in Drosophila melanogaster Oregon R-positive model assessed as increase in rescued eye phenotype at 10 uM by trinocular stereo-zoom microscope relative to control; type: functional
[13] = system: Drosophila melanogaster; assay: Reversal of ey-GAL4 driven UAS-amyloid beta induced cellular toxicity in Drosophila melanogaster Oregon R-positive model assessed as reduction in mild ommatidial death eye phenotype at 15 uM by trinocular stereo-zoom microscope relative to control; type: functional; design: scale not given: the % may be the effect or the level left
[14] = Drug concentration in male Wistar rat brain homogenate at 10 mg/kg, po measured after 4 days; type: ADME, organism-based; conditions: time 4 day, read-out: Ct
[15] = Drug concentration in male Wistar rat brain homogenate at 20 mg/kg, po measured after 4 days; type: ADME, organism-based; conditions: time 4 day, read-out: Ct

Chain of Beta-secretase 1 (P56817 whole entry): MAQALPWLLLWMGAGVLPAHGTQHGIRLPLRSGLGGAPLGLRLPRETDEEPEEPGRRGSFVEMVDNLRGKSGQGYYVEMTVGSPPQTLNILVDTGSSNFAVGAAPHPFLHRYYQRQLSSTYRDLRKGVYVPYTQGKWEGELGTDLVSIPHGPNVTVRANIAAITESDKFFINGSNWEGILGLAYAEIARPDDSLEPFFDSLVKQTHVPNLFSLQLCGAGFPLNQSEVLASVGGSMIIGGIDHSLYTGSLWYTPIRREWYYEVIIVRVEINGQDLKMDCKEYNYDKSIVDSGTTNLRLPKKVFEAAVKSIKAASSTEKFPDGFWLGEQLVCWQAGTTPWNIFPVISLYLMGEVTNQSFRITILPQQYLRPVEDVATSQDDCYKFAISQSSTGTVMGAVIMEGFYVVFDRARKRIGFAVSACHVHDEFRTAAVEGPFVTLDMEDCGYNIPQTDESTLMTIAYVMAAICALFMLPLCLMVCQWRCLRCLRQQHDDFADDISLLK

COc1cc2ncnc(N3CCN(Cc4ccccc4)CC3)c2cc1OC
IC50 [1]: 231 nM | Activity [2]: Active | Ki [3]: 246 nM | inhibition [4]: 27.3% | Activity [5]: Non-Toxic | Activity [6]: Non-Toxic | Activity [7]: Active | Activity [8]: Non-Toxic | Activity [9]: 65% | Activity [10]: 82% | Activity [11]: 27% | Activity [12]: 36.6% | Activity [13]: 30% | concentration at 96 h [14]: 633 ng/mL | concentration at 96 h [15]: 977 ng/mL

Reference: ChEMBL document CHEMBL5500373, “Lead optimization based design, synthesis, and pharmacological evaluation of quinazoline derivatives as multi-targeting agents for Alzheimer's disease treatment” (Eur J Med Chem, 2024)
